Measurements taken from patent US20160215031A1, “METHOD OF TREATING DISORDERS REQUIRING DESTRUCTION OR REMOVAL OF CELLS” (Nymox Pharnaceutical Corporation, priority 2015, published 2016).
Marks after values point to notes of the source that are not given here.

What was measured:
patients with BPH [1] = assay: Intraprostatic injection in patients with BPH: difference from baseline International Prostate Symptom Score (Mean IPSS Improvement); assay type: in vivo, men
Method: (§1) In a study of 978 men, patients with BPH were given an intraprostatic injection of either a) DRUG in phosphate buffered saline pH 7.2 (“PBS”) or b) PBS alone, under double-blind conditions by a urologist in an office setting under ultrasound guidance. Each patient was followed for one year or longer with regular physical examinations, laboratory tests, and evaluations of symptoms. Symptomatic evaluation was measured by the International Prostate Symptom Score (IPSS) which is a quantitative scale used to gauge prostatic symptomatic improvement or worsening. The IPSS quantifies the following: 1) incomplete bladder emptying after urination; 2) frequent urination; 3) stopping and starting during urination; 4) urgent need to urinate; 5) weakness of urinary stream; 6) need to push or strain during urination; 7) need to urinate after going to sleep at night (nocturia). The difference from baseline IPSS was compared in patients who were given DRUG vs patients who received PBS alone. Patients who had no previous history of conventional drug treatment (“treatment naïve”) were compared to patients who had previously failed on other conventional approved drugs such as alpha blockers or 5-alpha reductase inhibitors.
Patients with BPH were given an intraprostatic injection of either a) DRUG in phosphate buffered saline pH 7.2 (“PBS”) or b) PBS alone, under double-blind conditions by a urologist in an office setting under ultrasound guidance. Each patient was followed for one year or longer with regular physical examinations, laboratory tests, and evaluations of symptoms. Symptomatic evaluation was measured by the International Prostate Symptom Score (IPSS) which is a quantitative scale used to gauge prostatic symptomatic improvement or worsening. The IPSS quantifies the following: 1) incomplete bladder emptying after urination; 2) frequent urination; 3) stopping and starting during urination; 4) urgent need to urinate; 5) weakness of urinary stream; 6) need to push or strain during urination; 7) need to urinate after going to sleep at night (nocturia). The difference from baseline IPSS was compared in patients who were given DRUG vs patients who received PBS alone. Patients who had both a) no previous history of conventional drug treatment (“treatment naïve”) and b) their BPH symptoms for <10 years, were compared to patients who had either a) previously failed on other conventional approved drugs such as alpha blockers or 5-alpha reductase inhibitors or b) had their BPH symptoms for >=10 years.
In a study of 978 men, patients with BPH were given an intraprostatic injection of either a) DRUG in phosphate buffered saline pH 7.2 (“PBS”) or b) PBS alone, under double-blind conditions by a urologist in an office setting under ultrasound guidance. Each patient was followed for one year or longer with regular physical examinations, laboratory tests, and evaluations of symptoms. Symptomatic evaluation was measured by the International Prostate Symptom Score (IPSS) which is a quantitative scale used to gauge prostatic symptomatic improvement or worsening. The IPSS quantifies the following: 1) incomplete bladder emptying after urination; 2) frequent urination; 3) stopping and starting during urination; 4) urgent need to urinate; 5) weakness of urinary stream; 6) need to push or strain during urination; 7) need to urinate after going to sleep at night (nocturia). The difference from baseline IPSS at an average of 22 months after treatment was compared in patients who were given DRUG vs patients who received PBS alone. Patients who were followed for only 12 months were imputed a change from 12 months onward equal to the mean of their group. Patients who had no previous history of conventional drug treatment (“treatment naïve”) were compared to patients who had previously failed on other conventional approved drugs such as alpha blockers or 5-alpha reductase inhibitors. […]

patients with BPH [2] = assay: Intraprostatic injection in patients with BPH: proportion of patients worsening by IPSS; assay type: in vivo, men; parameters: decrease in the proportion of patients worsening over time, compared to the control: concentration or dose not given beside the values
Method: as §1
Patients with BPH were given an intraprostatic injection of either a) DRUG in phosphate buffered saline pH 7.2 (“PBS”) or b) PBS alone, under double-blind conditions by a urologist in an office setting under ultrasound guidance. Each patient was followed for one year with regular physical examinations, laboratory tests, and evaluations of symptoms. Symptomatic evaluation was measured by the International Prostate Symptom Score (IPSS) which is a quantitative scale used to gauge prostatic symptomatic improvement or worsening. The IPSS quantifies the following: 1) incomplete bladder emptying after urination; 2) frequent urination; 3) stopping and starting during urination; 4) urgent need to urinate; 5) weakness of urinary stream; 6) need to push or strain during urination; 7) need to urinate after going to sleep at night (nocturia). The difference from baseline IPSS was compared in patients who were given DRUG vs patients who received PBS alone. Previous treatment naive patients who had BPH history <10 years were compared to patients with previous treatment failure and to patients with BPH history >=10 years.

Substance: DRUG: NTP peptide given by intraprostatic injection in PBS pH 7.2; sequence not stated in the examples, probably SEQ ID NO. 66 (IDQQVLSRIKLEIKRCL)
- improvement of patients symptomatic for less than 10 years compared to patients symptomatic for more than 10 years (patients with BPH [1]; 12 months (Example 5)): about 40.9%
- improvement in treatment naive patients compared to the improvement found in treatment failure patients (patients with BPH [1]; 90 days (Example 1)): ~1,700%
- increase in treatment naive patients compared to the improvement found in treatment failure patients (patients with BPH [1]; 90 days (Example 1)): 16.7 fold
- Mean IPSS Improvement (patients with BPH [1]; duration of BPH symptoms <10 years, 12 months after treatment): 6.2*
- Mean IPSS Improvement (patients with BPH [1]; duration of BPH symptoms ≧10 years, 12 months after treatment): 4.4
- improvement compared to previously treated patients receiving the same drug (patients with BPH [1]; naive <10 years vs previously treated with symptoms for more than 10 years, 22 months (Example 4)): about 61.7%
- improvement compared to previously treated patients receiving the same drug (patients with BPH [1]; naive <10 years vs previously treated with symptoms for more than 10 years, 90 days (Example 2)): about 39.7%
- improvement compared to previously treated patients receiving the same drug (patients with BPH [1]; naive <10 years vs previously treated, worded 'symptoms for less than 10 years', 22 months (Example 4)): 48.6%
- improvement compared to previously treated patients receiving the same drug (patients with BPH [1]; naive <10 years vs previously treated, worded 'symptoms for less than 10 years', 90 days (Example 2)): 35.4%
- Mean IPSS Improvement when compared to the control (patients with BPH [1]; naive patients vs PBS, 22 months (Example 3)): about 52.9%
- Mean IPSS Improvement when compared to the control (patients with BPH [1]; naive patients vs PBS, 90 days (Example 1)): about 26.5%
- Mean IPSS Improvement when compared to the control (patients with BPH [1]; naive patients, BPH symptoms <10 years, vs PBS, after 22 months (Example 4)): about 61.7%
- Mean IPSS Improvement (patients with BPH [1]; no previous treatment (treatment naive), 90 days after treatment): 8.6*
- Mean IPSS Improvement (patients with BPH [1]; previous BPH treatment (treatment failure), 90 days after treatment): 6.5
- Mean IPSS Improvement (patients with BPH [1]; treatment failure and duration of BPH symptoms ≧10 years, 22 months after treatment): 3.4
- Mean IPSS Improvement (patients with BPH [1]; treatment failure and duration of BPH symptoms ≧10 years, 90 days after treatment): 6.3
- Mean IPSS Improvement when compared to the control (patients with BPH [1]; treatment failure patients vs PBS, 90 days (Example 1)): about 1.5%
- Mean IPSS Improvement (patients with BPH [1]; treatment failure, 22 months after treatment): 3.7
- Mean IPSS Improvement (patients with BPH [1]; treatment naive and duration of BPH symptoms <10 years, 22 months after treatment): 5.5*
- Mean IPSS Improvement (patients with BPH [1]; treatment naive and duration of BPH symptoms <10 years, 90 days after treatment): 8.8*
- Mean IPSS Improvement (patients with BPH [1]; treatment naive, 22 months after treatment): 5.2*
- improvement in proportion of patients worsening, treatment naive compared to treatment failure patients (patients with BPH [2]; 12 months (Example 6)): 4.15 fold
- reduction of the proportion of patients worsening, treatment naive compared to treatment failure patients (patients with BPH [2]; 12 months (Example 6)): ~420%
- Proportion of patients worsening (patients with BPH [2]; IPSS >0 at 12 months, treatment naive): 0.097*
- decrease in the proportion of patients worsening over time, treatment naive compared to treatment failure patients (patients with BPH [2]; IPSS >0 at one year (Example 7)): about 55.6%
- Proportion of patients worsening (patients with BPH [2]; IPSS >0 at one year, BPH history ≧10 years): .20
- Proportion of patients worsening (patients with BPH [2]; IPSS >0 at one year, treatment naive and BPH symptoms <10 years): .08
- decrease in the proportion of patients worsening over time, treatment naive compared to treatment failure patients (patients with BPH [2]; IPSS >1 at one year (Example 7)): ~50%
- Proportion of patients worsening (patients with BPH [2]; IPSS >1 at one year, BPH history ≧10 years): .13
- Proportion of patients worsening (patients with BPH [2]; IPSS >1 at one year, treatment failure): .12
- Proportion of patients worsening (patients with BPH [2]; IPSS >1 at one year, treatment naive and BPH symptoms <10 years): .06
- decrease in the proportion of patients worsening over time, treatment naive compared to treatment failure patients (patients with BPH [2]; IPSS >2 at one year (Example 7)): ~50%
- Proportion of patients worsening (patients with BPH [2]; IPSS >2 at one year, BPH history ≧10 years): .10
- Proportion of patients worsening (patients with BPH [2]; IPSS >2 at one year, treatment failure): .08
- Proportion of patients worsening (patients with BPH [2]; IPSS >2 at one year, treatment naive and BPH symptoms <10 years): .04***
- decrease in the proportion of patients worsening over time, compared to the control (patients with BPH [2]; history of BPH for more than 10 years, IPSS >0 at one year (Example 7)): about 4.7%
- decrease in the proportion of patients worsening over time, compared to the control (patients with BPH [2]; history of BPH for more than 10 years, IPSS >1 at one year (Example 7)): ~18.8%
- decrease in the proportion of patients worsening over time, compared to the control (patients with BPH [2]; history of BPH for more than 10 years, IPSS >2 at one year (Example 7)): ~16.7%
- decrease in the proportion of patients worsening over time, compared to the control (patients with BPH [2]; naive patients <10 years, IPSS >0 at one year (Example 7)): about 61.9%
- decrease in the proportion of patients worsening over time, compared to the control (patients with BPH [2]; naive patients <10 years, IPSS >1 at one year (Example 7)): ~62.5%
- decrease in the proportion of patients worsening over time, compared to the control (patients with BPH [2]; naive patients <10 years, IPSS >2 at one year (Example 7)): ~66.7%
- decrease in the proportion of patients worsening over time, compared to the control (patients with BPH [2]; naive patients, IPSS >0 at 12 months (Example 6)): about 51.5%
- decrease in the proportion of patients worsening over time, compared to the control (patients with BPH [2]; treatment failure patients, IPSS >0 at 12 months (Example 6)): about 10%
- decrease in the proportion of patients worsening over time, compared to the control (patients with BPH [2]; treatment failure patients, IPSS >0 at one year (Example 7)): about 14.3%
- decrease in the proportion of patients worsening over time, compared to the control (patients with BPH [2]; treatment failure patients, IPSS >1 at one year (Example 7)): ~25%
- decrease in the proportion of patients worsening over time, compared to the control (patients with BPH [2]; treatment failure patients, IPSS >2 at one year (Example 7)): ~33.3%
